ChEMBL document CHEMBL1250481, “Isoxazole analogs of curcuminoids with highly potent multidrug-resistant antimycobacterial activity” (2010)
≈ marks a conversion by molar mass, not a printed value. Calls of active or inactive are those of the source. The calls are words filed in the database; no cut-off is given here.

Test system: Mycobacterium tuberculosis
Assay: Antimycobacterial activity against Mycobacterium tuberculosis H37Ra at 200 ug/ml after 24 hrs by microtiter alamar blue assay
Type: functional, organism-based

| Structure (SMILES) | MIC |
| --- | --- |
| COc1ccc(/C=C/c2cc(/C=C/c3ccc(OC)cc3)on2)cc1 | inactive |
| CCCCCOc1ccc(/C=C/c2cc(/C=C/c3ccc(OCCCCC)c(OC)c3)on2)cc1OC | inactive |
| COc1cc(CCC(O)CC(O)CCc2ccc(O)c(OC)c2)ccc1O (stereo not drawn) | inactive |
| C=CCOc1ccc(/C=C/C(=O)CC(=O)/C=C/c2ccc(OCC=C)c(OC)c2)cc1OC | inactive |

Test system: Mycobacterium tuberculosis
Assay: Antimycobacterial activity against Mycobacterium tuberculosis H37Ra after 24 hrs by microtiter alamar blue assay
Type: functional

| Structure (SMILES) | MIC |
| --- | --- |
| COc1cc(CCc2cc(CCc3ccc(O)c(OC)c3)on2)ccc1O | 100 µg/mL (≈ 271 µM) |
| COc1cc(/C=C/C(=O)CC(=O)/C=C/c2ccc(OC(C)=O)cc2)ccc1O | 50 µg/mL (≈ 131 µM) |
| COc1cc(/C=C/C(=O)CC(=O)/C=C/c2ccc(OC(C)=O)c(OC)c2)ccc1O | 100 µg/mL (≈ 244 µM) |
| COc1cc(/C=C/c2cc(/C=C/c3ccc(OC)c(OC)c3)no2)ccc1O | 0.09 µg/mL (≈ 0.237 µM) |
| COc1cc(/C=C/c2cc(/C=C/c3ccc(O)cc3)[nH]n2)ccc1O | 100 µg/mL (≈ 299 µM) |
| CO[C@H]1/C=C/O[C@@]2(C)Oc3c(C)c(O)c4c(O)c(c(/C=N/N5CCN(C)CC5)c(O)c4c3C2=O)NC(=O)/C(C)=C\C=C\[C@H](C)[C@H](O)[C@@H](C)[C@@H](O)[C@@H](C)[C@H](OC(C)=O)[C@@H]1C [RIFAMPIN] | 0.004 µg/mL (≈ 0.00486 µM) |
| COc1cc(/C=C/C(=O)CC(=O)CCc2ccc(O)c(OC)c2)ccc1O | 200 µg/mL (≈ 540 µM) |
| COc1cc(/C=C/C(=O)/C=C/CCc2ccc(O)c(OC)c2)ccc1O | 12.5 µg/mL (≈ 35.3 µM) |
| O=C(/C=C/c1ccc(O)cc1)CC(=O)/C=C/c1ccc(O)cc1 [BISDEMETHOXYCURCUMIN] | 25 µg/mL (≈ 81.1 µM) |
| CC(=O)Oc1ccc(/C=C/C(=O)CC(=O)/C=C/c2ccc(OC(C)=O)cc2)cc1 | 25 µg/mL (≈ 63.7 µM) |
| Oc1ccc(/C=C/c2cc(/C=C/c3ccc(O)c(O)c3)on2)cc1O | 200 µg/mL (≈ 593 µM) |
| COc1cc(/C=C/c2cc(/C=C/c3ccc(O)c(OC)c3)on2)ccc1O | 1.56 µg/mL (≈ 4.27 µM) |
| CC(=O)Oc1ccc(/C=C/C(=O)CC(=O)/C=C/c2ccc(O)cc2)cc1 | 25 µg/mL (≈ 71.4 µM) |
| COc1cc(CC/C=C/C(=O)CCc2ccc(O)c(OC)c2)ccc1O | 25 µg/mL (≈ 70.1 µM) |
| NNC(=O)c1ccncc1 [ISONIAZID] | 0.06 µg/mL (≈ 0.438 µM) |
| COc1cc(CCC(=O)CC(=O)CCc2ccc(O)c(OC)c2)ccc1O [TETRAHYDROCURCUMIN] | 50 µg/mL (≈ 134 µM) |
| O=C(/C=C/c1ccc(O)cc1)CC(=O)/C=C/c1ccc(O)c(O)c1 | 200 µg/mL (≈ 617 µM) |
| CCCCCOc1ccc(/C=C/c2cc(/C=C/c3ccc(O)c(OC)c3)no2)cc1OC | 6.25 µg/mL (≈ 14.4 µM) |
| COc1cc(/C=C/C(=O)CC(=O)/C=C/c2ccc(OC(C)=O)cc2)ccc1OC(C)=O | 100 µg/mL (≈ 237 µM) |
| COc1cc(/C=C/C=C/C(=O)CCc2ccc(O)c(OC)c2)ccc1O | 25 µg/mL (≈ 70.5 µM) |
| C=CCOc1ccc(/C=C/C(=O)CC(=O)/C=C/c2ccc(O)c(OC)c2)cc1OC | 100 µg/mL (≈ 245 µM) |
| COc1cc(/C=C/c2cc(/C=C/c3ccc(OC(C)=O)c(OC)c3)no2)ccc1O | 1.56 µg/mL (≈ 3.83 µM) |
| COc1ccc(/C=C/C(=O)CC(=O)/C=C/c2ccc(OC)c(OC)c2)cc1OC [TETRAMETHOXYCURCUMIN] | 100 µg/mL (≈ 252 µM) |
| COc1cc(CCCCC(=O)CCc2ccc(O)c(OC)c2)ccc1O | 100 µg/mL (≈ 279 µM) |
| CCCCCOc1ccc(/C=C/c2cc(/C=C/c3ccc(O)c(OC)c3)on2)cc1OC | 0.39 µg/mL (≈ 0.895 µM) |

| Structure (SMILES) | MIC |
| --- | --- |
| Oc1ccc(/C=C/c2cc(/C=C/c3ccc(O)cc3)on2)cc1 | 12.5 µg/mL (≈ 40.9 µM) |
| COc1cc(/C=C/C(=O)CC(=O)/C=C/c2ccc(OCCO)c(OC)c2)ccc1O | 200 µg/mL (≈ 485 µM) |
| COc1cc(/C=C/C(=O)CC(=O)/C=C/c2ccc(OC(C)=O)c(OC)c2)ccc1OC(C)=O | 200 µg/mL (≈ 442 µM) |
| NC[C@H]1O[C@H](O[C@H]2[C@H](O)[C@@H](O[C@H]3O[C@H](CO)[C@@H](O)[C@H](N)[C@H]3O)[C@H](N)C[C@@H]2N)[C@H](O)[C@@H](O)[C@@H]1O [KANAMYCIN] | 2.5 µg/mL (≈ 5.16 µM) |
| Oc1ccc(/C=C/c2cc(/C=C/c3ccc(O)cc3)[nH]n2)cc1 | 25 µg/mL (≈ 82.1 µM) |
| CCCOc1ccc(/C=C/C(=O)CC(=O)/C=C/c2ccc(OCCC)c(OC)c2)cc1OC | 200 µg/mL (≈ 442 µM) |
| COc1cc(/C=C/C(=O)CC(=O)/C=C/c2ccc(O)cc2)ccc1OC(C)=O | 50 µg/mL (≈ 131 µM) |
| O=C(/C=C/c1ccc(O)c(O)c1)CC(=O)/C=C/c1ccc(O)c(O)c1 [DIDEMETHYLCURCUMIN] | 100 µg/mL (≈ 294 µM) |
| COc1cc(/C=C/C(=O)CC(=O)/C=C/c2ccc(OC)c(OC)c2)ccc1O | 50 µg/mL (≈ 131 µM) |
| COc1cc(/C=C/C=C/C(=O)/C=C/c2ccc(O)c(OC)c2)ccc1O | 12.5 µg/mL (≈ 35.5 µM) |
| COc1cc(/C=C/c2cc(/C=C/c3ccc(O)c(OC)c3)n(-c3ccccc3)n2)ccc1O | 25 µg/mL (≈ 56.8 µM) |
| COc1cc(/C=C/c2cc(/C=C/c3ccc(OC)c(OC)c3)on2)ccc1O | 0.78 µg/mL (≈ 2.06 µM) |
| CCCCCOc1ccc(/C=C/C(=O)CC(=O)/C=C/c2ccc(OCCCCC)c(OC)c2)cc1OC | 100 µg/mL (≈ 197 µM) |
| COc1cc(/C=C/c2cc(/C=C/c3ccc(O)c(OC)c3)[nH]n2)ccc1O [CURCUMIN PYRAZOLE] | 200 µg/mL (≈ 549 µM) |
| COc1cc(/C=C/c2cc(/C=C/c3ccc(OC(C)=O)c(OC)c3)on2)ccc1O | 1.56 µg/mL (≈ 3.83 µM) |
| COc1cc(/C=C/c2cc(CCc3ccc(O)c(OC)c3)on2)ccc1O | 6.25 µg/mL (≈ 17 µM) |
| COc1ccc(/C=C/c2cc(/C=C/c3ccc(OC)c(OC)c3)on2)cc1OC | 0.39 µg/mL (≈ 0.991 µM) |
| COc1cc(/C=C/C(O)=C/C(=O)/C=C/c2ccc(O)cc2)ccc1O [DEMETHOXYCURCUMIN] | 50 µg/mL (≈ 148 µM) |
| COc1cc(/C=C/C(=O)CC(=O)/C=C/c2ccc(O)c(O)c2)ccc1O | 200 µg/mL (≈ 564 µM) |
| COc1cc(/C=C/C(=O)CC(=O)/C=C/c2ccc(OCCO)c(OC)c2)ccc1OCCO | 200 µg/mL (≈ 438 µM) |
| CCCOc1ccc(/C=C/C(=O)CC(=O)/C=C/c2ccc(O)c(OC)c2)cc1OC | 25 µg/mL (≈ 60.9 µM) |
| COc1cc(/C=C/c2cc(/C=C/c3ccc(OC(C)=O)c(OC)c3)on2)ccc1OC(C)=O | 1.56 µg/mL (≈ 3.47 µM) |
| CCCCCOc1ccc(/C=C/C(=O)CC(=O)/C=C/c2ccc(O)c(OC)c2)cc1OC | 12.5 µg/mL (≈ 28.5 µM) |
| COc1cc(CCC(=O)CC(O)CCc2ccc(O)c(OC)c2)ccc1O (stereo not drawn) [HEXAHYDROCURCUMIN] | 100 µg/mL (≈ 267 µM) |
| COc1cc(/C=C/C(=O)CC(=O)/C=C/c2ccc(O)c(OC)c2)ccc1O [CURCUMIN] | 100 µg/mL (≈ 271 µM) |

Test system: Mycobacterium tuberculosis
Assay: Antimycobacterial activity against Pan-sensitive Mycobacterium tuberculosis H37Ra after 24 hrs by microtiter alamar blue assay
Type: functional

| Structure (SMILES) | MIC |
| --- | --- |
| COc1cc(/C=C/c2cc(/C=C/c3ccc(OC)c(OC)c3)no2)ccc1O | 0.09 µg/mL (≈ 0.237 µM) |
| CCCCCOc1ccc(/C=C/c2cc(/C=C/c3ccc(O)c(OC)c3)no2)cc1OC | 6.25 µg/mL (≈ 14.4 µM) |
| CCCCCOc1ccc(/C=C/c2cc(/C=C/c3ccc(O)c(OC)c3)on2)cc1OC | 0.39 µg/mL (≈ 0.895 µM) |
| COc1cc(/C=C/c2cc(/C=C/c3ccc(OC)c(OC)c3)on2)ccc1O | 0.78 µg/mL (≈ 2.06 µM) |
